# From the supplement of paper PMC11208160
# Assay: recombinant barcode read abundance after kanamycin selection (control-corrected) (log10(CPM+1)); higher = more efficient recombination; sequences stand for … in AGTGCAGAGAAAATCGGCCAGTTTTCTCTGCCTGCAGTCCGCATGCCGT…AGATTTATGCAGCGGACTGCCTTTCTCCCAAAGTGATAAACCGGACAGTATCATGGACCGGTTTTCCCGGTAATCCGTATTTGCAAGGTTGGTTTCACT; site = the 11-nt target
# In short: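 A vector carrying a T7-inducible recombinase and the last 73 bp of the bridge RNA received, by Gibson cloning, oligos encoding a promoter, target, barcode and the first 104 bridge RNA bases under J23119. The pooled constructs entered E. coli together with a donor plasmid by electroporation. Selection used chloramphenicol/ampicillin/kanamycin with 0.1 mM IPTG, with chloramphenicol/ampicillin LB agar as the control, each in two replicates. Recombination efficiency is the averaged, control-corrected counts-per-million of barcodes at recombinant junctions, reported as log10(CPM+1).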
# 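Note: IS621 recombinase and bridge RNA in Escherichia coli cells.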
row,Sequence,recombinant barcode read abundance (log10)
1,GTATGACCTTGGGTTCTAACCTGTTGCCT (site GTATGAGCTAG),0.0609
2,GTATGACCTTGGGTTCTAACCTGTTGCCT (site GTATGATCTAG),0.217
3,GTATGAGCTTGGGTTCTAACCTGTTGCCT (site GTATGAACTAG),0.475
4,GTATGAGCTTGGGTTCTAACCTGTTGCCT (site GTATGACCTAG),0.0478
5,GTATGAGCTTGGGTTCTAACCTGTTGCCT (site GTATGAGCTAG),1.5
6,GTATGAGCTTGGGTTCTAACCTGTTGCCT (site GTATGATCTAG),0.135
7,GTATGCCCTTGGGTTCTAACCTGTTGCCT (site GTATGCCCTAG),1.38
8,GTATGCCCTTGGGTTCTAACCTGTTGCCT (site GTGGGCCCTAG),0
9,GTATGGTCTTGGGTTCTAACCTGTTGCGT (site GTATCGTCTAG),0.0442
10,GTATGGTCTTGGGTTCTAACCTGTTGCGT (site GTATGGTCTAC),2.98
11,GTATGTACTTGGGTTCTAACCTGTTGCAT (site GTATGATCTAT),0.206
12,GTATGTACTTGGGTTCTAACCTGTTGCAT (site GTATGTACTAT),0.435
13,GTCAACTCTTGGGTTCTAACCTGTTGCCT (site GTAAACTCTAG),0.0267
14,GTCAACTCTTGGGTTCTAACCTGTTGCCT (site GTCAACTCTAG),2.06
15,GTCAACTCTTGGGTTCTAACCTGTTGCCT (site GTGAACTCTAG),0.00674
16,GTCAACTCTTGGGTTCTAACCTGTTGCCT (site GTTAACTCTAG),0.13
17,GTCAATCCTTGGGTTCTAACCTGTTGCGG (site CGACGAACTAG),0.138
18,GTCAATCCTTGGGTTCTAACCTGTTGCGG (site GTCAATCCTCC),1.25
19,GTCAATCCTTGGGTTCTAACCTGTTGCGT (site GCCACTCCTAC),0.0762
20,GTCAATCCTTGGGTTCTAACCTGTTGCGT (site GTCAATCCTAC),1.98
21,GTCACCTCTTGGGTTCTAACCTGTTGCCT (site GTCACCTCTAG),1.8
22,GTCACCTCTTGGGTTCTAACCTGTTGCCT (site GTCCCCTCTAG),0.0973
23,GTCACCTCTTGGGTTCTAACCTGTTGCCT (site GTCGCCTCTAG),0.0645
24,GTCACCTCTTGGGTTCTAACCTGTTGCCT (site GTCTCCTCTAG),0.105
25,GTCACTACTTGGGTTCTAACCTGTTGCGT (site GTAACTACTCC),0.182
26,GTCACTACTTGGGTTCTAACCTGTTGCGT (site GTCACTACTAC),0.517

row,Sequence,recombinant barcode read abundance (log10)
1,GTCAGCCCTTGGGTTCTAACCTGTTGCGG (site GTCAGCCCTCC),2.53
2,GTCAGCCCTTGGGTTCTAACCTGTTGCGG (site GTTAGCCCTCC),0.365
3,GTCCCTCCTTGGGTTCTAACCTGTTGCGT (site GTCCCTCCTAA),0.0918
4,GTCCCTCCTTGGGTTCTAACCTGTTGCGT (site GTCCCTCCTAC),2.74
5,GTCCCTCCTTGGGTTCTAACCTGTTGCGT (site GTCCCTCCTAG),0.156
6,GTCCCTCCTTGGGTTCTAACCTGTTGCGT (site GTCCCTCCTAT),1.34
7,GTCCTACCTTGGGTTCTAACCTGTTGCAA (site GTCCTAACTGT),0.42
8,GTCCTACCTTGGGTTCTAACCTGTTGCAA (site GTCCTACCTTT),1.45
9,GTCGAGCCTTGGGTTCTAACCTGTTGCCT (site GTCGAGCCTAG),2.12
10,GTCGAGCCTTGGGTTCTAACCTGTTGCCT (site GTTCAGCCTAG),0.157
11,GTCGAGTCTTGGGTTCTAACCTGTTGCCT (site GTCGACACTAG),0.186
12,GTCGAGTCTTGGGTTCTAACCTGTTGCCT (site GTCGAGTCTAG),1.61
13,GTCGCTACTTGGGTTCTAACCTGTTGCCG (site GTCACTACTCG),0
14,GTCGCTACTTGGGTTCTAACCTGTTGCCG (site GTCCCTACTCG),0.0655
15,GTCGCTACTTGGGTTCTAACCTGTTGCCG (site GTCGCTACTCG),0.95
16,GTCGCTACTTGGGTTCTAACCTGTTGCCG (site GTCTCTACTCG),1.35
17,GTCGCTACTTGGGTTCTAACCTGTTGCGG (site GTCGCTACTCC),0.785
18,GTCGCTACTTGGGTTCTAACCTGTTGCGG (site GTCTCTACTCC),0.667
19,GTCGGTCCTTGGGTTCTAACCTGTTGCAC (site GTCGGTCCTGT),2.49
20,GTCGGTCCTTGGGTTCTAACCTGTTGCAC (site TGAAACTCTCC),0.0122
21,GTCGTACCTTGGGTTCTAACCTGTTGCCT (site GTCATACCTAG),0.348
22,GTCGTACCTTGGGTTCTAACCTGTTGCCT (site GTCCTACCTAG),0.0361
23,GTCGTACCTTGGGTTCTAACCTGTTGCCT (site GTCGTACCTAG),0.704
24,GTCGTACCTTGGGTTCTAACCTGTTGCCT (site GTCTTACCTAG),0.221
25,GTCGTAGCTTGGGTTCTAACCTGTTGCTA (site GTCGAACCTTA),0.139
26,GTCGTAGCTTGGGTTCTAACCTGTTGCTA (site GTCGTAGCTTA),0.353

row,Sequence,recombinant barcode read abundance (log10)
1,GTCGTCGCTTGGGTTCTAACCTGTTGCCT (site GTCGTCACTAG),0.136
2,GTCGTCGCTTGGGTTCTAACCTGTTGCCT (site GTCGTCCCTAG),0.0726
3,GTCGTCGCTTGGGTTCTAACCTGTTGCCT (site GTCGTCGCTAG),0.376
4,GTCGTCGCTTGGGTTCTAACCTGTTGCCT (site GTCGTCTCTAG),0.0427
5,GTCTAAGCTTGGGTTCTAACCTGTTGCCG (site GTCTAAGCTCG),0.59
6,GTCTAAGCTTGGGTTCTAACCTGTTGCCG (site GTCTACGCTTG),0.0178
7,GTCTAAGCTTGGGTTCTAACCTGTTGCTT (site GTCTAAGCTAA),0.0172
8,GTCTAAGCTTGGGTTCTAACCTGTTGCTT (site GTCTATGCTAC),0.295
9,GTCTAATCTTGGGTTCTAACCTGTTGCAT (site ACAGGTCCTCG),0.0725
10,GTCTAATCTTGGGTTCTAACCTGTTGCAT (site GTCTAATCTAT),1.02
11,GTCTCGTCTTGGGTTCTAACCTGTTGCTT (site GTCTCGTCTAA),0.246
12,GTCTCGTCTTGGGTTCTAACCTGTTGCTT (site GTCTCTTCTTA),0.0559
13,GTCTGAGCTTGGGTTCTAACCTGTTGCCT (site GTCTAAGCTAG),0.241
14,GTCTGAGCTTGGGTTCTAACCTGTTGCCT (site GTCTGAGCTAG),0.355
15,GTCTTATCTTGGGTTCTAACCTGTTGCCT (site GTCTAATCTAG),0.0535
16,GTCTTATCTTGGGTTCTAACCTGTTGCCT (site GTCTCATCTAG),0.0374
17,GTCTTATCTTGGGTTCTAACCTGTTGCCT (site GTCTGATCTAG),0.24
18,GTCTTATCTTGGGTTCTAACCTGTTGCCT (site GTCTTATCTAG),1.14
19,GTCTTGACTTGGGTTCTAACCTGTTGCCA (site GTCTTAACTCG),0.0812
20,GTCTTGACTTGGGTTCTAACCTGTTGCCA (site GTCTTGACTTG),0.102
21,GTGAAAGCTTGGGTTCTAACCTGTTGCCA (site GTGAAAGCTTG),0.73
22,GTGAAAGCTTGGGTTCTAACCTGTTGCCA (site GTGGAAGCTTG),0.0113
23,GTGAACCCTTGGGTTCTAACCTGTTGCAA (site GTGAACCCTTT),1.66
24,GTGAACCCTTGGGTTCTAACCTGTTGCAA (site TCCGGAGCTCG),0.103
25,GTGAACCCTTGGGTTCTAACCTGTTGCAG (site GTGAACCCTCT),2.11
